# Laboratory results as given in patent EP4810052A2, “HCRHR2 SELECTIVE POLYPEPTIDES” (Gubra A/S, priority 2023, dated 2026).
# Where two headings read alike, the source gives them in different places. Starred links: 1 amine or outer side, 2 acyl side, 3 side chain; linkers in the order of their positions; H or OH if unused. Non-standard residues stand in square brackets, D forms with d. Residues, ends and D or L forms follow the SMILES beside them. Groups on a side chain read outwards from the residue. *: point of attachment. C20 diacid = O=C(O)CCCCCCCCCCCCCCCCCCC(=O)*; γGlu = O=C(O)[C@H](CCC(=O)[*:2])N[*:1]; NMeI = CC[C@H](C)[C@H](NC)C(=O)O; Nle = CCCC[C@H](N)C(=O)O; AEEA = NCCOCCOCC(=O)O; Aib = CC(C)(N)C(=O)O
# What was measured:
# [1] = Thioflavin T fibril formation assay of purified peptides; assay type: physicochemical; design: key: Amyloid fibril formation detected by an increase in ThT fluorescence was denoted with "Yes"; samples without increasing ThT fluorescence hence not forming amyloid fibrils were denoted "No"; conditions: for Amyloid fibril formation + semaglutide (Ozempic®), pH 7.4: 200 µM compound dissolved in semaglutide drug product, listed as None = drug product alone; for Amyloid fibril formation pH 7.0 / Amyloid fibril formation pH 7.5 / Amyloid fibril formation pH 8.0: 200 µM in 50 mM phosphate buffer
# Procedure, shortened: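 Compounds at 200 µM in 50 mM phosphate buffer at the stated pH values, or at 200 µM in semaglutide drug product adjusted to pH 7.4, with 4 µM ThT final. Fibrillation followed as ThT fluorescence (ex 450/em 480 nm) over 96 h at 40°C, with 5 min shaking at 700 rpm alternating with 5 min rest; triplicates.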
# [2] = Chemical stability of purified peptides (RP-UHPLC main peak purity loss); assay type: physicochemical
# Procedure, shortened: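 Peptides at about 1.0 mg/ml in 50 mM phosphate buffer pH 7.5, or pH-adjusted for the pH series, were incubated at 40 °C for 14 and 28 days. Main-peak purity was taken as main-peak area over total area by RP-UHPLC (UV 215 nm, C8, 50 °C). Purity loss was calculated versus T0.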
# [3] = Dynamic Light Scattering (DLS) of peptide oligomerisation/particle formation; assay type: physicochemical; conditions: for PD (%) / Rh (nm): average of three replica
# Method: Samples were prepared by dissolving 800 nmol of each peptide in 400 µl 50 mM phosphate pH 8.0 to a concentration of 2000 µM (ca 10 mg/ml). After fully dissolution for 2 hours on a rocking table, samples were adjusted to pH 7.5 and filtrated through a 0.2 µm Whatman Anotop filter. Comparators were commercially available liraglutide drug product (Victoza®, Novo Nordisk) pH 8.2, and an aliquot of this drug product adjusted to pH 6.7. These samples were filtrated through a 0.02 µm Whatman Anotop filter.
# Samples were pipetted as triplicate of 30 µl to an Aurora 384 well microtiter plate, which was centrifuged for 2 minutes at 2200 rpm and then sealed with a Thermo sealing tape 235307. DLS measurements were done in a Wyatt DynaPro platereader III with the following parameters:
# The microtiter plate was incubated in a Grant-bio Thermo Shaker PHMP-4 at 40°C with 700 rpm continuous shaking before subsequent DLS measurements. Data analysis was done using Wyatt Dynamics software ver. 7.10.1.21.
# Samples were prepared and measured as described in procedure. The hydrodynamic radii (Rh) and associated polydispersity (PD) resulting from cumulant analysis (assuming one species) are shown in the Table 8 as averages of three replica. T0 indicates the measurement at time zero after sample preparation; T5 indicates the measurements of five days of incubation as described above.
# [4] = PK in mice; assay type: in vivo; design: T½ / MRT: unit: h; conditions: for MRT / T½ / clearance / half-life / Cmax / Tmax: Mouse; for bioavailability / clearance / half-life / Cmax / Tmax: male, in vivo; for bioavailability: NMRI, mouse; for clearance / half-life / Cmax / Tmax: NMRI/RjHan; for half-life: read-out: T½ (converted)
# Method: Lean male NMRI/RjHan mice were obtained from JanVier (JanVier Labs, France) at 6 weeks of age. The animals were single housed under a 12/12 h dark-light cycle, light off at 3 PM. Room temperature was controlled to 22°C ± 1°C, with 60 % ± 20% humidity. Animals had ad libitum access to regular rodent chow (Altromin 1324, Brogaarden, Denmark) and tap water.
# After 2 weeks of acclimatization, the animals were randomized into treatment groups (n=9 per group) based on body weight. Animals were dosed IV with one peptide and SC with another peptide (15 or 50 nmol/kg) Plasma samples were collected for PK analysis at times 0.17, 1, 3, 6, 24, 30, 48, 72 and 96 hours post dosing in a sparse sampling design with 3 mice per group per timepoint. Plasma samples were analyzed using LC-MSMS and PK parameters were estimated by Non-Compartmental Analysis (NCA).
# [5] = pH 7.5, 40°C, 14 days, first value of cell
# [6] = T0, time zero after sample preparation
# [7] = T5, five days incubation at 40°C with continuous shaking
Structure (SMILES),"Amyloid fibril formation + semaglutide (Ozempic®), pH 7.4 [1]",Amyloid fibril formation pH 7.0 [1],Amyloid fibril formation pH 7.5 ([1]; pH 7.5),Amyloid fibril formation pH 8.0 [1],"Purity loss (RP-UPLC analysis) T14-T0 (%) ([2]; pH 7.0, 40°C, 14 days)","Purity loss (RP-UPLC analysis) T28-T0 (%) ([2]; pH 7.0, 40°C, 28 days)","Purity loss (RP-UPLC analysis) T14-T0 (%) ([2]; pH 7.5, 40°C, 14 days)","Purity loss (RP-UPLC analysis) T28-T0 (%) ([2]; pH 7.5, 40°C, 28 days)","Purity loss (RP-UPLC analysis) T14-T0 (%) ([2]; pH 8.0, 40°C, 14 days)","Purity loss (RP-UPLC analysis) T28-T0 (%) ([2]; pH 8.0, 40°C, 28 days)","PD (%) [3, 6] [%]","Rh (nm) [3, 6] [nm]","PD (%) [3, 7]","Rh (nm) [3, 7] [nm]",MRT [4],T½ [4],bioavailability ([4]; sc) [%],"clearance ([4]; iv, 15 nmol/kg i.v.) [mL/h/kg]","half-life ([4]; iv, 15 nmol/kg i.v.) [h]","Cmax ([4]; sc, 15 nmol/kg s.c.) [nM]",further results
CC[C@H](C)[C@H](NC)C(=O)N[C@H](C(=O)N[C@@H](CC(C)C)C(=O)N[C@@H](CO)C(=O)N[C@@H](CC(C)C)C(=O)N[C@@H](CC(=O)O)C(=O)N[C@H](C(=O)N1CCC[C@H]1C(=O)N[C@H](C(=O)NCC(=O)N[C@@H](CC(C)C)C(=O)N[C@@H](CC(C)C)C(=O)N[C@@H](CCC(N)=O)C(=O)N[C@H](C(=O)N[C@@H](CC(C)C)C(=O)N[C@@H](CC(C)C)C(=O)N[C@@H](CCC(=O)O)C(=O)N[C@@H](CCC(N)=O)C(=O)N[C@@H](C)C(=O)N[C@@H](CCCNC(=N)N)C(=O)N[C@@H](C)C(=O)N[C@@H](CCCNC(=N)N)C(=O)N[C@@H](C)C(=O)N[C@@H](C)C(=O)N[C@@H](CCCNC(=N)N)C(=O)N[C@@H](CCC(=O)O)C(=O)N[C@@H](CCC(N)=O)C(=O)N[C@@H](C)C(=O)N[C@@H](CCCCNC(=O)COCCOCCNC(=O)COCCOCCNC(=O)CC[C@H](NC(=O)CC[C@H](NC(=O)CCCCCCCCCCCCCCCCCCC(=O)O)C(=O)O)C(=O)O)C(=O)N[C@H](C(=O)N[C@@H](CC(N)=O)C(=O)NC(C)(C)C(=O)N[C@@H](CCC(=O)O)C(=O)N[C@H](C(=O)N[C@@H](CC(C)C)C(=O)N[C@@H](C)C(=O)N[C@@H](CCC(=O)O)C(=O)N[C@H](C(N)=O)C(C)C)[C@@H](C)CC)[C@@H](C)O)[C@@H](C)CC)[C@@H](C)CC)C(C)C)C(C)C [SEQ ID NO: 16] (H-[NMeI]VLSLDVPIGLLQILLEQARARAAREQAK([AEEA-AEEA-γGlu-γGlu-C20 diacid])TN[Aib]EILAEV-NH2),No,No,No,No,-0.6,-1.1,-0.1,-0.3,-0.5,-1.1,10.5,4.7,11.6%,4.7,21.5,15.9,62,3.7,15.9,60,"Fibrillation (pH 7.5) ([1]; pH 7.5, ThT assay): No; Chemical stability at pH 7.5 after 14 days at 40°C (% degradation) [2, 5]: -0.6 / %; Tmax ([4]; sc, 15 nmol/kg s.c.): 6 h; half-life ([4]; sc, 15 nmol/kg s.c.): 14.8 h"
CC[C@H](C)[C@H](NC)C(=O)N[C@H](C(=O)N[C@@H](CC(C)C)C(=O)N[C@@H](CO)C(=O)N[C@@H](CC(C)C)C(=O)N[C@@H](CC(=O)O)C(=O)N[C@H](C(=O)N1CCC[C@H]1C(=O)N[C@H](C(=O)NCC(=O)N[C@@H](CC(C)C)C(=O)N[C@@H](CC(C)C)C(=O)N[C@@H](CCC(N)=O)C(=O)N[C@H](C(=O)N[C@@H](CC(C)C)C(=O)N[C@@H](CC(C)C)C(=O)N[C@@H](CCC(=O)O)C(=O)N[C@@H](CCC(N)=O)C(=O)N[C@@H](C)C(=O)N[C@@H](CCCNC(=N)N)C(=O)N[C@@H](C)C(=O)N[C@@H](CCCNC(=N)N)C(=O)N[C@@H](C)C(=O)N[C@@H](C)C(=O)N[C@@H](CCCNC(=N)N)C(=O)N[C@@H](CCC(=O)O)C(=O)N[C@@H](CCC(N)=O)C(=O)N[C@@H](C)C(=O)N[C@H](C(=O)N[C@@H](CCCCNC(=O)COCCOCCNC(=O)COCCOCCNC(=O)CC[C@H](NC(=O)CC[C@H](NC(=O)CCCCCCCCCCCCCCCCCCC(=O)O)C(=O)O)C(=O)O)C(=O)N[C@@H](CC(N)=O)C(=O)N[C@@H](C)C(=O)N[C@@H](CCC(=O)O)C(=O)N[C@H](C(=O)N[C@@H](CC(C)C)C(=O)N[C@@H](C)C(=O)N[C@@H](CCC(=O)O)C(=O)N[C@H](C(N)=O)C(C)C)[C@@H](C)CC)[C@@H](C)O)[C@@H](C)CC)[C@@H](C)CC)C(C)C)C(C)C [SEQ ID NO: 6] (H-[NMeI]VLSLDVPIGLLQILLEQARARAAREQATK([AEEA-AEEA-γGlu-γGlu-C20 diacid])NAEILAEV-NH2),No,No,No,No,-1.8,-2.0,-1.1,-2.6,-3.1,-7.1,38.5,5.8,Multimodal,30.6,16,14.7,78,3.3,14.7,90,"Fibrillation (pH 7.5) ([1]; pH 7.5, ThT assay): No; Chemical stability at pH 7.5 after 14 days at 40°C (% degradation) [2, 5]: -1.0%; Chemical stability at pH 7.5 after 28 days at 40°C (% degradation) ([2]; pH 7.5, 40°C, 28 days, second value of cell): -3.5%; particle size / hydrodynamic radii (DLS) ([3]; 2000 µM, pH 7.5, five days incubation at 40°C with continuous shaking): formed larger particles and several species (multimodal); Tmax ([4]; sc, 15 nmol/kg s.c.): 24 h; half-life ([4]; sc, 15 nmol/kg s.c.): 16 h"
CCCC[C@H](NC(=O)[C@@H](NC(=O)[C@H](CCC(=O)O)NC(=O)[C@H](C)NC(=O)[C@H](CC(N)=O)NC(=O)C(C)(C)NC(=O)[C@H](CCCCNC(=O)COCCOCCNC(=O)COCCOCCNC(=O)CC[C@H](NC(=O)CC[C@H](NC(=O)CCCCCCCCCCCCCCCCCCC(=O)O)C(=O)O)C(=O)O)NC(=O)[C@H](C)NC(=O)[C@H](CCC(N)=O)NC(=O)[C@H](CCC(=O)O)NC(=O)[C@H](CCCNC(=N)N)NC(=O)[C@H](C)NC(=O)[C@H](C)NC(=O)[C@H](CCCNC(=N)N)NC(=O)[C@H](C)NC(=O)[C@H](CCCNC(=N)N)NC(=O)[C@H](C)NC(=O)[C@H](CCC(N)=O)NC(=O)[C@H](CO)NC(=O)[C@H](CC(C)C)NC(=O)[C@H](CC(C)C)NC(=O)[C@@H](NC(=O)[C@H](CCC(N)=O)NC(=O)[C@H](CC(C)C)NC(=O)[C@H](CC(C)C)NC(=O)CNC(=O)[C@@H](NC(=O)[C@@H]1CCCN1C(=O)[C@@H](NC(=O)[C@H](CC(=O)O)NC(=O)[C@H](CC(C)C)NC(=O)[C@H](CO)NC(=O)[C@H](CC(C)C)NC(=O)[C@@H](NC(=O)[C@@H]1CCCN1)C(C)C)C(C)C)[C@@H](C)CC)[C@@H](C)CC)[C@@H](C)CC)C(=O)N[C@@H](C)C(=O)N[C@@H](CCC(=O)O)C(=O)N[C@H](C(N)=O)C(C)C [SEQ ID NO: 238] (H-PVLSLDVPIGLLQILLSQARARAAREQAK([AEEA-AEEA-γGlu-γGlu-C20 diacid])[Aib]NAEI[Nle]AEV-NH2),No,No,No,No,-1.0,-1.2,-3.1,-4.8,-5.1,-9.8,5.3,4.8,8.1%,4.8,21.4,19.6,60,4.4,19.6,48,"Fibrillation (pH 7.5) ([1]; pH 7.5): No; Chemical stability at pH 7.5 after 14 days at 40°C (% degradation) ([2]; pH 7.5, 14 days, 40°C): -1.6%; Chemical stability at pH 7.5 after 28 days at 40°C (% degradation) ([2]; pH 7.5, 28 days, 40°C): -4.6%; Tmax ([4]; sc, 15 nmol/kg s.c.): 24 h; half-life ([4]; sc, 15 nmol/kg s.c.): 25.2 h"
